Measured values from publication PMC8750417, “Intracellular Amplifiers of Reactive Oxygen Species Affecting Mitochondria as Radiosensitizers” (Cancers, 2021).

What was measured:
[1] = n-octanol/water partition coefficient (logP) by RP-TLC; assay type: physicochemical; conditions: for logP (Hydrolyzed Prodrug): n-octanol/water partition coefficient of the hydrolyzed boronic acid (_BA) form of the prodrug named; for logP (Prodrug): n-octanol/water partition coefficient of the intact prodrug (or control 2c_c), RP-TLC, MOPS pH 7.4
Protocol: Determination of n-octanol/water partition coefficients (LogP) […]
mixture of dichloromethane/CH3OH at proper concentrations. Commercially available […]
7.4) (6/4, v/v) was used. The solvent migration distance was around 4.5 cm. The plates […]
and its distance was manually measured. All measurements were done in at least triplicate and average values were used in further calculations. All experiments were performed at ambient temperature (22 ± 2 °C). […]

[2] = Solubility in RPMI 1640 medium, precipitation seen by bright field optical microscopy; conditions: DMSO 1%; for Solubility: 48 h incubation in RPMI 1640, FBS 5%, first signs of precipitation
Protocol: The latter medium was selected, since we used it for the cellular assays. […] Then we monitored the formation of (not detectable in the previous experiment) aggregated species in prodrug solutions that appeared transparent (concentrations < 50 µM) by using dynamic light scattering. […]
Solubility of drugs in aqueous buffers
Observing prodrug precipitation by using bright field optical microscopy […]
glutamine (1 %), and penicillin/streptomycin (1 %) was filled into 96-well microtiter plates (100 µL for each well) and compounds in DMSO stock solution (1 µL) were added. Each well was monitored by using bright field optical microscopy both immediately after […]

[3] = Prodrug-induced generation of ROS in cell free settings (DCFH/H2O2); conditions: relative acceleration of the rate of DCFH fluorescence increase with H2O2, pH 7.4; FeSO4 = 1.0
Excerpt: As previously reported, the NAAF-prodrugs react with ROS like H2O2, first leading to the cleavage of the B-C-bond with the formation of the phenol derivatives (product 2c-1, Figure S49, SI). The latter compounds exist in equilibrium with the corresponding phenolates. The phenolates undergo the spontaneous 1,6-elimination of para-quinone methide (QM) followed by the release of CO2 with the formation of the N-alkylaminoferrocene NAAF drugs (product 2c-2, Figure S46, SI). By using electrospray ionization mass spectrometry (ESI–MS), we confirmed for one representative prodrug 2c that it reacts with H2O2 in cell free settings according to this common mechanism (ESI-MS, Figures S46–S48, SI). The NAAF is further oxidized by H2O2 or molecular oxygen with the generation of drug NAAF^+ and highly toxic HO• or/and O2^•−. Finally, the NAAF^+ is reduced by glutathione (GSH), thereby closing the catalytic cycle, in which the NAAF acts as a catalyst. We evaluated the formation of HO• or/and O2^•− by using 2′,7′-dichlorodihydrofluorescein (DCFH) as a probe (Table 1, Figure S49, SI). This probe is oxidized to the fluorescent product 2′,7′-dichlorofluorescein (DCF) in the presence of HO• or/and O2^•−. […] The lower activity of 2c and 2d correlates with their higher lipophilicity and their correspondingly higher propensity to form aggregates in aqueous solution (Figure S45, SI).
Prodrug-induced generation of ROS in cell free settings
2',7'-Dichlorodihydrofluorescein diacetate (DCFH-DA, 4.9 mg) was dissolved in DMF (100 μL) and mixed with aqueous NaOH (0.1 M, 900 μL). The resulting mixture was incubated for 30 min at 22 °C in the dark to obtain a stock solution of 2',7'-dichlorodihydrofluorescein (DCFH, 10 mM). Next, DCFH (1 µL ) was added to the solution containing MOPS buf fer (100 mM, pH 7.4), N,N,N'N' -e thylenediaminetetraacetic acid (EDTA , 10 mM) and glutathione (GSH , 5 mM) (1 mL, final concentration of DCFH 10 μM). The reaction mixture was heated to 37 °C and H2O2 (1 µL, final concentration 10 mM) was added. The reaction was monitored by fluorescence spectroscopy: λex = 501 nm, λem = 523 nm. After around 5 min, prodrugs (1 mM in DMF, 10 μL) or positive control FeSO4 (1 mM in water, 10 μL) were added, and the fluorescence monitoring was continued until the fluorescence signal growth was stalled after approximately 100 to 300 min. A representative kinetics of ROS […]
The data are presented in Table 1 as relative acceleration of the rate of the fluorescence increase, where the rate of the fluorescence increase obtained in the presence of positive control FeSO4 was set […]
y = a time + b (a = (dF/dt) , min-1)
Figure S49. Increase of the fluorescence intensity (λex = 501 nm, λem = 523 nm) upon oxidation of DCFH by H2O2 in the presence of FeSO4. Experimental details are provided in the description above. The time point of the FeSO4 addition is indicated with a black […]
(also on this page, place not known: ° C µL) buffer N,N,N'N'-ethylenediaminetetraacetic (EDTA, (GSH, ° C FeSO 4 (λ ex λ em Fluorescence (a.u.) (dF/dt)0, min -1 Addition of)
(1 picture or pasted object on this page, not shown here)

A2780 cells = assay: Cell viability, MTT assay, A2780; assay type: cell-based, human
Protocol: (§1) Determination of viability of cells in the presence of prodrugs and controls A2780 and BL-2 cells The medium was removed, and the cells were washed two times with DPBS, trypsinated, and resuspended in RPMI 1640 medium (A2780) supplemented with 5% FBS (for 24 h and 48 h assay) or 10% FBS (for 96 h assay) , 1% L-glutamine, and 1% penicillin/streptomycin.
(§2) A2780 cells: This suspension was spread in the wells of a 96 -well microtiter plate (25000 cells for A2780 per well per 100 μL) and left standing at 37 °C in the chamber filled with CO2 (5%) for overnight. Stock solutions of prodrugs of different concentra tions (1 μL, solvent dmso, final concentrations in wells were 2, 5, 10, 30, 50 μM) were added to the wells and incubated for specific periods of time. Four experiments were conducted for each concentration of the prodrug. Finally, 3-(4,5-dimethylthiazol-2-yl)-2,5-diphenyltetrazolium bromide (MTT, 20 μL of the solution prepared by dissolving MTT (5 mg) in DPBS buffer (1 mL)) was added to each well, incubated for 3 h, treated with sodium dodecyl sulfate (SDS) solution (90 μL, 10% solution in 0.01 M aqueous HC l), and incubated overnight. Afterward, the intensity of the absorbance at 590 nm was measured.
(§3) MTT is converted in live cells to blue dye with the absorbance maximum λ max at 590 nm.
The absorbance at 690 nm was taken as a baseline value. The baseline corrected absorbance at 590 nm (A(590 nm) − A(690 nm)) was applied to calculate the relative number of viable cells. IC50 values were determined by fitting the experimental data expressing the number of viable cells (%, Y-axis) versus drug concentration (μM, X-axis) with a line curve and the X-axis value corresponding to 50% viability was considered as IC50 value according to the line curve (Figure S50, Table S2). […]

[4] = test system: chronic lymphocytic leukemia (CLL) cells; assay: Viability of primary CLL cells (CellTiter Glo); assay type: cell-based, human; conditions: viability of CLL vs MNC, 48 h; for 2c at 3.3 and 10 µM
Excerpt: Determination of viability of primary cancer (CLL) and normal (MNC) cells in the […]
Clinical samples from chronic lymphocytic leukemia (CLL) patients (N=6, CLL cells) and healthy donors (N=6; peripheral blood mononuclear cells, MNCs) were collected at the University Hospital Heidelberg, Germany. Informed consent was obtained in accordance with the Declaration of Helsinki. Sample collection and analysis was approved by the ethics committee of the University of Heidelberg (S-254/2016). Blood was separated by a Ficoll gradient (GE Healthcarey), and cells were cryopreserved. Drug sensitivity screening was performed in 384-well format (Greiner Bio One) with 10 different prodrug […]
4x10^4 cells per well. Cells were cultured in RPMI-1640 (Invitrogen) supplemented with penicillin/streptomycin (Invitrogen), L-glutamine (Invitrogen) and 10% pooled and heat inactivated AB-type human serum (Sigma-Aldrich). Cell viability was assessed by quantification of ATP (CellTiter Glo®, Promega) 48 hours after drug application.
Luminescence was measured on a Tecan Infinite F200 Microplate Reader. Viability was calculated as % of solvent (DMSO) treated control. Representative plots of cell viability

BL-2 cells = assay: Cell viability, MTT assay, BL-2; assay type: cell-based, human; conditions: BL-2, 48 h incubation
Protocol: as §1, §2, §3
The absorbance at 690 nm was taken as a baseline value. The baseline corrected absorbance at 590 nm (A(590 nm) − A(690 nm)) was applied to calculate the relative number of viable cells. IC50 values were determined by fitting the experimental data expressing the number of viable cells (%, Y-axis) versus drug concentration (μM, X-axis) with a line curve and the X-axis value corresponding to 50% viability was considered as IC50 value according to the line curve (Figure S50, Table S2).
BL-2 cells: The cells were centrifuged, the medium was removed, and the cells were washed two times with DPBS and re-suspended in RPMI 1640 medium containing 5% (48 h incubation) or 10% FBS (96 h incubation), 1% L-glutamine, and 1% penicillin/ streptomycin. This suspension was spread in the wells of a 96-well microtiter plate (50000 cells per well per 100 μL). Other steps were identical to those was described in determination of viability of adherent cells (given above) (Table S3).

Jurkat cells = assay: Jurkat flow cytometry (AnnexinA5/PI viability, DiIC1(5) MMP, monobromobimane GSH, cell cycle); assay type: cell-based, human; conditions: 48 h incubation
Protocol: Jurkat cells The cells were counted in MUSE Cell Analyzer using MUSE® Count &Viability Assay Kit (Merck-Millipore, Billerica, MA, USA) and adjusted to a density of 1.0 x 10^5/ml in RPMI 1640 medium (with 10% FCS and 1% glutamine). 9.000 cells per well per 90 µL were seeded into 96 well culture plates. The 30 mM prodrug stock solutions in DMSO were diluted to 300 µM, 100 µM, 30 µM and 10 µM in cell culture medium and 10 µL of the dilutions was pipetted to the cells, receiving final test concentrations of 30 µM, 10 µM, 3 µM and 1 µM. Every concentration was tested in triplicates. Cells with corresponding amounts of DMSO served as negative controls. After 48 h cells were mixed and 25 µL of […]
the cell suspension was incubated with 200 µL of freshly prepared staining solution, consisting of AnnexinA5-Fitc (1 µL), 1,1′,3,3,3′,3′-hexamethylindodicarbocyanine iodide (DiIC1(5), 0.4 µL) (both from ThermoFisher Scientific, Waltham, MA, USA), propidium iodide (PI, 67 ng) and monobromobimane (MBB, 33 µM, both from Sigma-Aldrich, Taufkirchen, Germany) per 1 ml Ringer’s solution (Fresenius Kabi AG, Bad Homburg, Germany). Cells were incubated for 20 min at 4°C and then analyzed in Gallios cytofluorometer™ (Beckman Coulter, Fullerton, CA, USA). Fitc and propidium iodide were excited at 488 nm; Fitc fluorescence was recorded on the FL1 sensor (525/38 nm band pass, BP) and propidium iodide fluorescence was detected on FL3 sensor (620/30 nm BP), DiIC1(5) fluorescence was excited at 638 nm and detected on FL6 sensor at 675/20 nm BP, and monobromobimane fluorescence was excited at 405 nm and detected on FL9 sensor at 430/40 nm BP. To eliminate any fluorescence bleed-through, electronic compensation was used. Data were analyzed employing Kaluza™ software Version 1.2 (Beckman Coulter, Fullerton, CA, USA) and processed in Microsoft Excel (Figures S51-S54, Table S5). Cells negative for Annexin A5-Fitc and propidium iodide were considered viable. IC50 values were determined by fitting the % values of Ax-PI- cells versus drug concentration with a sigmoidal curve using GraphPad Prism software. Reduced glutathione (an intracellular thiol) can be detected by monobromobimane, a dye that becomes fluorescent after non-enzymatic binding to thiols.[S3] For analysis of amount of mitochondrial membrane potential or reduced glutathione the mean fluorescence index (MFI) was determined from viable cells by gating on Ax -PI- events.
Table S5. Effects of the prodrugs on the viability of Jurkat cell lines (IC50 values) after 48

Question: Which “logP (Hydrolyzed Prodrug)” value [1] does the source give for `CCOC(=O)CCCCCn1cc(CN(C(=O)OCc2ccc(B(O)O)cc2)[c-]2cccc2)nn1.[Fe+2].c1cc[cH-]c1` [1_BA, reference compound] here?
Answer: 2.83 ± 0.07

Question: Which “logP (Hydrolyzed Prodrug)” value [1] does the source give for `CC1(C)OB(c2ccc(COC(=O)N(Cc3cn(CCc4ccccc4)nn3)[c-]3cccc3)cc2)OC1(C)C.[Fe+2].c1cc[cH-]c1` [2b] here?
Answer: 3.10 ± 0.12

Question: And the “logP (Prodrug)” value [1]?
Answer: 5.37 ± 0.10

Question: And the Solubility [2]?
Answer: 100 µM

Question: What about the “first signs of precipitation” value ([2]; immediately after dilution in RPMI 1640, FBS 5%) of the same compound?
Answer: 50 µM

Question: What about the “ROS Release Efficacy” value [3] of the same compound?
Answer: 0.76 ± 0.19

Question: What about the IC50 (A2780 cells; A2780, 24 h incubation) of the same compound?
Answer: 24.7 ± 0.6 µM

Question: And the IC50 (A2780 cells; A2780, 48 h incubation)?
Answer: 18.5 ± 1.3 µM

Question: And the IC50 (A2780 cells; A2780, 96 h incubation)?
Answer: 12 ± 3 µM

Question: And the “cancer cell specificity, primary CLL cells vs MNCs” value [4]?
Answer: some specificity towards primary CLL cells

Question: With `O=C(OCc1ccc(B(O)O)cc1)N(Cc1cn(Cc2ccc(Cn3cc(Cc4ccccc4)nn3)cc2)nn1)[c-]1cccc1.[Fe+2].c1cc[cH-]c1` [2c_BA] as the compound, how does the “logP (Hydrolyzed Prodrug)” value [1] read?
Answer: 3.23 ± 0.11

Question: Which IC50 (A2780 cells; A2780, 48 h incubation) does the source give for `[Fe+2].c1cc[cH-]c1.c1ccc(Cn2cc(CN[c-]3cccc3)nn2)cc1` [compound 3] here?
Answer: > 50 µM

Question: Which “logP (Prodrug)” value [1] does the source give for `CN(C)C(=O)c1ccc(COC(=O)N(Cc2cn(Cc3ccc(Cn4cc(Cc5ccccc5)nn4)cc3)nn2)[c-]2cccc2)cc1.[Fe+2].c1cc[cH-]c1` [2c_c] here?
Answer: 3.90 ± 0.08

Question: And the Solubility [2]?
Answer: 55 ± 5 µM

Question: And the “ROS Release Efficacy” value [3]?
Answer: 0.050 ± 0.003

Question: And the IC50 (A2780 cells; A2780, 96 h incubation)?
Answer: 6.1 ± 1.5 µM

Question: What does the source list for `C1=CCC=C1.CC1(C)OB(c2ccc(COC(=O)N(Cc3cn(CCC[P+](c4ccccc4)(c4ccccc4)c4ccccc4)nn3)C3C=CC=C3)cc2)OC1(C)C.[Fe+2]` [5c, reference compound]?
Answer: IC50 (A2780 cells; A2780, 24 h incubation): 10 ± 3 µM; IC50 (A2780 cells; A2780, 48 h incubation): 5 ± 2 µM; IC50 (A2780 cells; A2780, 96 h incubation): 5 ± 2 µM; IC50 (BL-2 cells): 5 µM; IC50 (Jurkat cells): 20 µM

Question: With `[Fe+2].c1cc[cH-]c1.c1ccc(CN[c-]2cccc2)cc1` [compound 4] as the compound, how does the IC50 (A2780 cells; A2780, 48 h incubation) read?
Answer: > 50 µM
